Experimental data as given in patent publication US20120053200A1, “BACE 2 INHIBITORS” (priority 2010, published 2012).

What follows are compounds tested against T1, BACE2 (Rattus norvegicus, UniProt Q6IE75) (assay: Assay for BACE inhibition by measuring cellular TMEM27 cleavage (INS-TMEM27 cells, ELISA of shed TMEM27)). Conditions: inhibition of human TMEM27 cleavage by endogenous cellular BACE2 in INS1e-derived INS-TMEM27 rat cell line; ELISA of shed TMEM27 in supernatant.
T1 construct: endogenous cellular BACE2 in the Ins1e rat cell line; endogenous in cells; host or cells: INS-TMEM27 (INS1e-derived rat beta-cell line with doxycycline-inducible full-length hTMEM27)
T1 sequence (Q6IE75 63-514): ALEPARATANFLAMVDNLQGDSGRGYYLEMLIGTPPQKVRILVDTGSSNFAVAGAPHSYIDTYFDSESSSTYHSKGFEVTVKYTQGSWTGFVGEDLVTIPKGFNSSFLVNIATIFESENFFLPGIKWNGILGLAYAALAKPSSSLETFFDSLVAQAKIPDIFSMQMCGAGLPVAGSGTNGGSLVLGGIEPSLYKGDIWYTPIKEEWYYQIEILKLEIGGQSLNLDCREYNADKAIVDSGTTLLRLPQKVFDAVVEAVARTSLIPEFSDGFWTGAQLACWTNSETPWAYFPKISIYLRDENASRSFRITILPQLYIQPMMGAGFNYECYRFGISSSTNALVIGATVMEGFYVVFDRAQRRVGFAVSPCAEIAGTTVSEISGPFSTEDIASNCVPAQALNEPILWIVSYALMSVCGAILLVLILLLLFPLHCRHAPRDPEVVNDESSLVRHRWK
Assay type: cell-based
Text: Assay for […] Inhibition by Measuring Cellular TMEM27 Cleavage
This assay uses the principle of inhibition of human TMEM27 cleavage by endogenous cellular BACE2 in the Ins1e rat cell line and shedding from the cell surface into the culture medium, followed by detection in an ELISA assay. Inhibition of BACE2 prevents the cleavage and shedding in a dose-dependent manner.
The stable cell line “INS-TMEM27” represents an INS1e-derived cell line with inducible expression (using the TetOn system) of full-length hTMEM27 in a doxycycline-dependent manner. The cells were cultured throughout the experiment in RPMI1640+Glutamax (Invitrogen) Penicillin/Streptomycin, 10% Fetal bovine serum, 100 mM pyruvate, […] beta-mercatptoethanol, 100 micrograms/ml G418 and 100 microgram/ml hygromycin and were grown in adherent culture at 37° C. in a standard CO2 cell culture incubator.
INS-TMEM27 cells were seeded in 96-well plates. After 2 days in culture, BACE2 inhibitor was added in a range of concentrations as required by the assay and after a further two hours, doxycycline was added to a final concentration of 500 ng/ml. The cells were incubated for a further 46 hours and the supernatant harvested for detection of shed TMEM27.
An ELISA assay (using a pair of mouse anti-human-TMEM27 antibodies, raised against the extracellular domain of TMEM27) was used for detection of TMEM27 in the culture medium. An IC50 for BACE2 inhibition was calculated using the ELISA readout for each inhibitor concentration with standard curve-fitting software.
The inhibitory activity, given as an IC50 value, of the compounds of Examples 1 to 32 and 34 to 74 were as follows.
O=C(N[C@@H](Cc1ccccc1)[C@H](O)CNCc1cccc(OC(F)(F)F)c1)c1cccc(C(=O)N2CCCC2c2cccs2)c1 (stereo partly drawn) [Example 32, N-[(1S,2R)-1-Benzyl-2-hydroxy-3-(3-trifluoromethoxy-benzylamino)-propyl]-3-(2-thiophen-2-yl-pyrrolidine-1-carbonyl)-benzamide] showed an IC50 of 138 nM.
With O=C(N[C@@H](Cc1ccccc1)[C@H](O)CNCc1cccc(C(F)(F)F)c1)c1cccc(C(=O)N2CCCC2c2cccnc2)c1 (stereo partly drawn) [Example 13, N-[(1S,2R)-1-Benzyl-2-hydroxy-3-(3-trifluoromethyl-benzylamino)-propyl]-3-(2-pyridin-3-yl-pyrrolidine-1-carbonyl)-benzamide] the IC50 was 68 nM.
CC(C)CC1CCCN1C(=O)c1cccc(C(=O)N[C@@H](Cc2ccccc2)[C@H](O)CNCc2cccc(C(F)(F)F)c2)c1 (stereo partly drawn) [Example 70, N-[(1S,2R)-1-Benzyl-2-hydroxy-3-(3-trifluoromethyl-benzylamino)-propyl]-3-(2-isobutyl-pyrrolidine-1-carbonyl)-benzamide] showed an IC50 of 147 nM.
Work on CCn1cc(CNC[C@@H](O)[C@H](Cc2ccccc2)NC(=O)c2cc(C)cc(C(=O)N(C)Cc3nc(C)cs3)c2)cn1 [Example 40, N-{(1S,2R)-1-Benzyl-3-[(1-ethyl-1H-pyrazol-4-ylmethyl)-amino]-2-hydroxy-propyl}-5,N′-dimethyl-N′-(4-methyl-thiazol-2-ylmethyl)-isophthalamide] yielded an IC50 of 104 nM.
Compound COc1cccc(CNC[C@@H](O)[C@H](Cc2ccccc2)NC(=O)c2cccc(C(=O)N3CCCC3c3cccs3)c2)c1 (stereo partly drawn) [Example 30, N-[(1S,2R)-1-Benzyl-2-hydroxy-3-(3-methoxy-benzylamino)-propyl]-3-(2-thiophen-2-yl-pyrrolidine-1-carbonyl)-benzamide] has an IC50 of 16 nM.
Compound O=C(N[C@@H](Cc1ccccc1)[C@H](O)CNCc1cccc(C(F)(F)F)c1)c1cccc(C(=O)N2CCCC2c2cccc(Cl)c2)c1 (stereo partly drawn) [Example 57, N-[(1S,2R)-1-Benzyl-2-hydroxy-3-(3-trifluoromethyl-benzylamino)-propyl]-3-[2-(3-chloro-phenyl)-pyrrolidine-1-carbonyl]-benzamide] has an IC50 of 619 nM.
In the case of COc1cccc(CNC[C@@H](O)[C@H](Cc2ccccc2)NC(=O)c2cccc(C(=O)N(C)Cc3ccccn3)c2)c1 [Example 28, N-[(1S,2R)-1-Benzyl-2-hydroxy-3-(3-methoxy-benzylamino)-propyl]-N′-methyl-N′-pyridin-2-ylmethyl-isophthalamide], the IC50 is reported as 511 nM.
In the case of CCn1cc(CNC[C@@H](O)[C@H](Cc2ccccc2)NC(=O)c2cc(C(=O)N3CCCC3c3ccccc3)cc(N(C)S(C)(=O)=O)c2)cn1 (stereo partly drawn) [Example 35, N-{(1S,2R)-1-Benzyl-3-[(1-ethyl-1H-pyrazol-4-ylmethyl)-amino]-2-hydroxy-propyl}-3-(methanesulfonyl-methyl-amino)-5-(2-phenyl-pyrrolidine-1-carbonyl)-benzamide], the IC50 is reported as 0.2 nM.
COc1cccc(CNC[C@@H](O)[C@H](Cc2ccccc2)NC(=O)c2cccc(C(=O)N3CCCC3c3ccc(C)s3)c2)c1 (stereo partly drawn) [Example 27, N-[(1S,2R)-1-Benzyl-2-hydroxy-3-(3-methoxy-benzylamino)-propyl]-3-[2-(5-methyl-thiophen-2-yl)-pyrrolidine-1-carbonyl]-benzamide] was tested, and the IC50 was 314 nM.
In the case of O=C(N[C@@H](Cc1ccccc1)[C@H](O)CNCc1cccc(C(F)(F)F)c1)c1cccc(C(=O)N2CCCC2C2CCCCC2)c1 (stereo partly drawn) [Example 69, N-[(1S,2R)-1-Benzyl-2-hydroxy-3-(3-trifluoromethyl-benzylamino)-propyl]-3-(2-cyclohexyl-pyrrolidine-1-carbonyl)-benzamide], the IC50 is reported as 7 nM.
With O=C(N[C@@H](Cc1ccccc1)[C@H](O)CNCc1cccc(OC(F)(F)F)c1)c1cccc(C(=O)N2CCCC2c2cccnc2)c1 (stereo partly drawn) [Example 25, N-[(1S,2R)-1-Benzyl-2-hydroxy-3-(3-trifluoromethoxy-benzylamino)-propyl]-3-(2-pyridin-3-yl-pyrrolidine-1-carbonyl)-benzamide] the IC50 was 70 nM.
Work on “N-[(1S,2R)-1-Benzyl-2-hydroxy-3-(3-trifluoromethyl-benzylamino)-propyl]-3-(methanesulfonyl-methyl-amino)-5-(2-phenyl-pyrrolidine-1-carbonyl)-benzamide [Example 50]” yielded an IC50 of 3 nM.
With CN(c1cc(C(=O)N[C@@H](Cc2ccccc2)[C@H](O)CNCc2cccc(OC(F)(F)F)c2)cc(C(=O)N2CCCC2c2ccccc2)c1)S(C)(=O)=O (stereo partly drawn) [Example 42, N-[(1S,2R)-1-Benzyl-2-hydroxy-3-(3-trifluoromethoxy-benzylamino)-propyl]-3-(methanesulfonyl-methyl-amino)-5-(2-phenyl-pyrrolidine-1-carbonyl)-benzamide] the IC50 was 62 nM.
Cn1ccc(C2CCCN2C(=O)c2cccc(C(=O)N[C@@H](Cc3ccccc3)[C@H](O)CNCc3cccc(C(F)(F)F)c3)c2)n1 (stereo partly drawn) [Example 14, N-[(1S,2R)-1-Benzyl-2-hydroxy-3-(3-trifluoromethyl-benzylamino)-propyl]-3-[2-(1-methyl-1H-pyrazol-3-yl)-pyrrolidine-1-carbonyl]-benzamide] was tested, and the IC50 was 63 nM.
O=C(N[C@@H](Cc1ccccc1)[C@H](O)CNCc1cccc(C(F)(F)F)c1)c1cccc(C(=O)N2CCCC2C(=O)c2ccccc2)c1 (stereo partly drawn) [Example 71, 3-(2-Benzoyl-pyrrolidine-1-carbonyl)-N-[(1S,2R)-1-benzyl-2-hydroxy-3-(3-trifluoromethyl-benzylamino)-propyl]-benzamide] was tested, and the IC50 was 484 nM.
Work on Cc1cc(C(=O)N[C@@H](Cc2ccccc2)[C@H](O)CNCc2cccc(OC(F)(F)F)c2)cc(C(=O)N(C)Cc2ccccn2)c1 [Example 44, N-[(1S,2R)-1-Benzyl-2-hydroxy-3-(3-trifluoromethoxy-benzylamino)-propyl]-5,N′-dimethyl-N′-pyridin-2-ylmethyl-isophthalamide] yielded an IC50 of 49 nM.
Compound Cc1cc(C(=O)N[C@@H](Cc2ccccc2)[C@H](O)CNCc2cccc(C(F)(F)F)c2)cc(C(=O)N2CCCC2c2ccccc2)c1 (stereo partly drawn) [Example 51, N-[(1S,2R)-1-Benzyl-2-hydroxy-3-(3-trifluoromethyl-benzylamino)-propyl]-3-methyl-5-(2-phenyl-pyrrolidine-1-carbonyl)-benzamide] has an IC50 of 0.4 nM.
COc1cccc(CNC[C@@H](O)[C@H](Cc2ccccc2)NC(=O)c2cccc(C(=O)N3CCCC3c3ccccc3)c2)c1 (stereo partly drawn) [Example 22, N-[(1S,2R)-1-Benzyl-2-hydroxy-3-(3-methoxy-benzylamino)-propyl]-3-(2-phenyl-pyrrolidine-1-carbonyl)-benzamide] showed an IC50 of 31.2 nM.
Work on CC1(C)[C@@H]2CC[C@@]1(C)CN(C(=O)c1cccc(C(=O)N[C@@H](Cc3ccccc3)[C@H](O)CNCc3cccc(OC(F)(F)F)c3)c1)C2 [Example 8, N-[(1S,2R)-1-Benzyl-2-hydroxy-3-(3-trifluoromethoxy-benzylamino)-propyl]-3-((1R,5S)-1,8,8-trimethyl-3-aza-bicyclo[3.2.1]octane-3-carbonyl)-benzamide] yielded an IC50 of 822 nM.
Compound CN(Cc1ccccn1)C(=O)c1cccc(C(=O)N[C@@H](Cc2ccccc2)[C@H](O)CNCc2cccc(OC(F)(F)F)c2)c1 [Example 29, N-[(1S,2R)-1-Benzyl-2-hydroxy-3-(3-trifluoromethoxy-benzylamino)-propyl]-N′-methyl-N′-pyridin-2-ylmethyl-isophthalamide] has an IC50 of 112 nM.
Compound Cc1cc(C(=O)N[C@@H](Cc2ccccc2)[C@H](O)CNCc2cccc(OC(F)(F)F)c2)cc(C(=O)N2CCCC2c2ccccc2)c1 (stereo partly drawn) [Example 43, N-[(1S,2R)-1-Benzyl-2-hydroxy-3-(3-trifluoromethoxy-benzylamino)-propyl]-3-methyl-5-(2-phenyl-pyrrolidine-1-carbonyl)-benzamide] has an IC50 of 3 nM.
For COc1cccc(CNC[C@@H](O)[C@H](Cc2ccccc2)NC(=O)c2cccc(C(=O)N3CCC[C@@H]3c3nc(C)cs3)c2)c1 [Example 20, N-[(1S,2R)-1-Benzyl-2-hydroxy-3-(3-methoxy-benzylamino)-propyl]-3-[(R)-2-(4-methyl-thiazol-2-yl)-pyrrolidine-1-carbonyl]-benzamide], the IC50 was 143 nM.
With O=C(N[C@@H](Cc1ccccc1)[C@H](O)CNCc1cccc(C(F)(F)F)c1)c1cccc(C(=O)N2CCCC2c2ccccc2)c1 (stereo partly drawn) [Example 12, N-[(1S,2R)-1-Benzyl-2-hydroxy-3-(3-trifluoromethyl-benzylamino)-propyl]-3-(2-phenyl-pyrrolidine-1-carbonyl)-benzamide] the IC50 was 75 nM.
